Experiments:
[1] = system: rat liver mitochondria (RLM); assay: Mitochondrial respiration of isolated RLM (Clark-type oxygen electrode): RCR, ADP/O; format: biochemical; settings: RLM
Experimental: (§1) In an embodiment, and as an example, the toxicity effects of some AntiOxBENs and MitoQ on the mitochondrial bioenergetics, namely on RLM Δψ and respiration parameters, were measured. The Δψ represents the main component of the electrochemical gradient generated by mitochondrial respiration and accounts for more than 90% of the total available energy. For mitochondrial respiration assays, glutamate/malate (for complex I) and succinate (for complex II) were used as substrates. In addition, the mitochondrial oxidative phosphorylation coupling index, known as respiratory control ratio (RCR, state 3/state 4 respiration) and ADP/O index (the coupling between ATP synthesis and oxygen consumption) were also calculated. AntiOxBENs and MitoQ were tested at antioxidant-relevant concentrations, with 10 μM being the highest concentration.
In an embodiment, the evaluation of AntiOxBENs effect on mitochondrial respiration was performed as follows: the respiration of isolated RLM was evaluated polarographically with a Clark-type oxygen electrode, connected to a suitable recorder in a 1 mL thermostated water-jacketed chamber with magnetic stirring, at 37° C. […] Increasing concentrations of AntiOxBENs (2.5-10 μM) were added to the reaction medium containing respiratory substrates glutamate/malate (10 mM and 5 mM respectively) or succinate (5 mM) and RLM (1 mg) and allowed to incubate for a 5 min period prior to the assay. State 2 was considered as the respiration during the 5 min incubation time with AntiOxBENs. […] State 4 was determined after ADP phosphorylation finished. Subsequent addition of oligomycin (2 μg/ml) inhibited ATPsynthase and originated the oligomycin-inhibition respiration state. Finally, 1 μM FCCP was added to induce uncoupled respiration. […] Data are means are means±SEM of seven independent experiments.

[2] = system: rat liver mitochondria (RLM); assay: Mitochondrial transmembrane electric potential (safranine fluorescence); format: biochemical
Experimental: as §1
In an embodiment, the evaluation of AntiOxBENs effect on mitochondrial transmembrane electric potential (Δψ) was performed as follows: the mitochondrial transmembrane electric potential (Δψ) was estimated through the evaluation of fluorescence changes of safranine (5 μM) and was recorded on a spectrofluorometer operating at excitation and emission wavelengths of 495 and 586 nm, with a slit width of 5 nm. Increasing concentrations of AntiOxBENs (2.5-10 μM) were added to the reaction medium (200 mM sucrose, 1 mM KH2PO^4, 10 mM Tris (pH 7.4) and 10 μM EGTA) containing respiratory substrates glutamate/malate (5 mM and 2.5 mM respectively) or succinate (5 mM) and RLM (0.5 mg in 2 mL final volume) and allowed to incubate for a 5 min period prior to initiate the assay, at 25° C. In this assay, safranine (5 μM) and ADP (25 nmol) were used to initiate the assay and to induce depolarization, respectively. Then, 1 μM FCCP was added at the end of all experiments to depolarize mitochondria. Δψ was calculated using a calibration curve obtained when RLM were incubated in a K^+-free reaction medium containing 200 mM sucrose, 1 mM NaH2PO4, 10 mM Tris (pH 7.4) and 10 μM EGTA, supplemented with 0.4 μg valinomicin. […] “Repolarization” corresponded to the recovery of membrane potential after the complete phosphorylation of ADP added. Lag phase reflected the time required to phosphorylate the added ADP. Isolated RLM developed a Δψ≈226 mV and Δψ≈202 mV (negative inside) when glutamate/malate or succinate were used, respectively. Data are means±SEM of five independent experiments.

SMILES	ADP/O ([1]; Glutamate/Malate, 2.5 μM)	RCR ([1]; Glutamate/Malate, 2.5 μM)	ADP/O ([1]; Glutamate/Malate, 5 μM)	RCR ([1]; Glutamate/Malate, 5 μM)	ADP/O ([1]; Glutamate/Malate, 10 μM)	RCR ([1]; Glutamate/Malate, 10 μM)	ADP/O ([1]; Succinate, 2.5 μM)	RCR ([1]; Succinate, 2.5 μM)	ADP/O ([1]; Succinate, 5 μM)	RCR ([1]; Succinate, 5 μM)	ADP/O ([1]; Succinate, 10 μM)	RCR ([1]; Succinate, 10 μM)	ADP-induced depolarization (ΔΨ in - mV) ([2]; Glutamate/Malate, 2.5 μM)	Lag Phase ([2]; Glutamate/Malate, 2.5 μM) [s]	Maximum potential (ΔΨ in - mV) ([2]; Glutamate/Malate, 2.5 μM)	Repolarization Potential (ΔΨ in - mV) ([2]; Glutamate/Malate, 2.5 μM)	ADP-induced depolarization (ΔΨ in - mV) ([2]; Glutamate/Malate, 5 μM)	Lag Phase ([2]; Glutamate/Malate, 5 μM) [s]	Maximum potential (ΔΨ in - mV) ([2]; Glutamate/Malate, 5 μM)	Repolarization Potential (ΔΨ in - mV) ([2]; Glutamate/Malate, 5 μM)	also measured
O=C(NCCCCCC[P+](c1ccccc1)(c1ccccc1)c1ccccc1)c1ccc(O)c(O)c1.[Br-] [AntiOxBEN1, 6-(3,4-dihydroxybenzamido)hexyltriphenylphosphonium bromide]	2.5 ± 0.2	4.9 ± 0.6	2.8 ± 0.4	4.4 ± 0.6	2.1 ± 0.1	2.6 ± 0.1	1.7 ± 0.03	4.7 ± 0.3	1.6 ± 0.1	3.0 ± 0.3	1.5 ± 0.1	2.8 ± 0.3	199.5 ± 16.6 - mV	131.8 ± 18.9	216.8 ± 18.9 - mV	212.3 ± 18.2 - mV	209.4 ± 20.3 - mV	137.8 ± 22.5	224.8 ± 24.7 - mV	219.0 ± 22.9 - mV	ADP-induced depolarization (ΔΨ in - mV) ([2]; Glutamate/Malate, 10 μM): 192.6 ± 15.0 - mV; Lag Phase ([2]; Glutamate/Malate, 10 μM): 148.7 ± 48.4 s; Maximum potential (ΔΨ in - mV) ([2]; Glutamate/Malate, 10 μM): 200.4 ± 16.0 - mV; Repolarization Potential (ΔΨ in - mV) ([2]; Glutamate/Malate, 10 μM): 199.4 ± 17.1 - mV; ADP-induced depolarization (ΔΨ in - mV) ([2]; Succinate, 2.5 μM): 180.3 ± 17.1 - mV; Lag Phase ([2]; Succinate, 2.5 μM): 120.0 ± 32.1 s; Maximum potential (ΔΨ in - mV) ([2]; Succinate, 2.5 μM): 191.4 ± 18.2 - mV; Repolarization Potential (ΔΨ in - mV) ([2]; Succinate, 2.5 μM): 190.3 ± 17.4 - mV; ADP-induced depolarization (ΔΨ in - mV) ([2]; Succinate, 5 μM): 175.4 ± 12.9 - mV; Lag Phase ([2]; Succinate, 5 μM): 93.6 ± 29.2 s; Maximum potential (ΔΨ in - mV) ([2]; Succinate, 5 μM): 184.9 ± 13.1 - mV; Repolarization Potential (ΔΨ in - mV) ([2]; Succinate, 5 μM): 181.0 ± 13.5 - mV; ADP-induced depolarization (ΔΨ in - mV) ([2]; Succinate, 10 μM): 182.4 ± 14.4 - mV; Lag Phase ([2]; Succinate, 10 μM): 105.0 ± 28.1 s; Maximum potential (ΔΨ in - mV) ([2]; Succinate, 10 μM): 188.9 ± 14.8 - mV; Repolarization Potential (ΔΨ in - mV) ([2]; Succinate, 10 μM): 188.8 ± 15.8 - mV
O=C(NCCCCCC[P+](c1ccccc1)(c1ccccc1)c1ccccc1)c1cc(O)c(O)c(O)c1.[Br-] [AntiOxBEN2, 6-(3,4,5-trihydroxybenzamido)hexyltriphenylphosphonium bromide]	2.3 ± 0.3	4.3 ± 0.6	2.3 ± 0.2	3.9 ± 0.5	2.1 ± 0.2	2.9 ± 0.3	1.7 ± 0.1	5.2 ± 0.9	1.7 ± 0.1	3.8 ± 0.4	1.6 ± 0.04	3.5 ± 0.3	200.5 ± 17.5 - mV	124.7 ± 19.2	217.8 ± 18.8 - mV	216.8 ± 17.9 - mV	194.9 ± 15.6 - mV	147.5 ± 31.2	212.2 ± 19.8 - mV	209.0 ± 17.8 - mV	ADP-induced depolarization (ΔΨ in - mV) ([2]; Glutamate/Malate, 10 μM): 200.1 ± 18.2 - mV; Lag Phase ([2]; Glutamate/Malate, 10 μM): 146.2 ± 30.9 s; Maximum potential (ΔΨ in - mV) ([2]; Glutamate/Malate, 10 μM): 209.5 ± 19.1 - mV; Repolarization Potential (ΔΨ in - mV) ([2]; Glutamate/Malate, 10 μM): 208.4 ± 18.6 - mV; ADP-induced depolarization (ΔΨ in - mV) ([2]; Succinate, 2.5 μM): 184.5 ± 19.2 - mV; Lag Phase ([2]; Succinate, 2.5 μM): 115.4 ± 21.0 s; Maximum potential (ΔΨ in - mV) ([2]; Succinate, 2.5 μM): 197.6 ± 18.2 - mV; Repolarization Potential (ΔΨ in - mV) ([2]; Succinate, 2.5 μM): 193.6 ± 17.8 - mV; ADP-induced depolarization (ΔΨ in - mV) ([2]; Succinate, 5 μM): 191.2 ± 17.8 - mV; Lag Phase ([2]; Succinate, 5 μM): 118.0 ± 26.4 s; Maximum potential (ΔΨ in - mV) ([2]; Succinate, 5 μM): 204.6 ± 18.1 - mV; Repolarization Potential (ΔΨ in - mV) ([2]; Succinate, 5 μM): 200.4 ± 17.0 - mV; ADP-induced depolarization (ΔΨ in - mV) ([2]; Succinate, 10 μM): 190.9 ± 16.8 - mV; Lag Phase ([2]; Succinate, 10 μM): 124.8 ± 37.2 s; Maximum potential (ΔΨ in - mV) ([2]; Succinate, 10 μM): 199.8 ± 16.0 - mV; Repolarization Potential (ΔΨ in - mV) ([2]; Succinate, 10 μM): 198.6 ± 17.2 - mV
O=C(CCCCC[P+](c1ccccc1)(c1ccccc1)c1ccccc1)NCCCCCCNC(=O)c1cc(O)c(O)c(O)c1.[Br-] [AntiOxBEN3, [5-(6-(3,4,5-trihydroxybenzamido)hexylamino)carbonylpentyl]triphenylphosphonium bromide]	2.3 ± 0.2	3.9 ± 0.5	2.3 ± 0.1	3.9 ± 0.6	2.0 ± 0.2	3.07 ± 0.6	1.6 ± 0.1	4.1 ± 0.5	1.6 ± 0.1	4.3 ± 0.7	1.7 ± 0.1	3.9 ± 0.4	202.9 ± 18.7 - mV	137.5 ± 20.3	221.1 ± 20.2 - mV	217.0 ± 17.7 - mV	204.5 ± 21.6 - mV	154.5 ± 21.5	221.4 ± 22.6 - mV	216.4 ± 21.3 - mV	ADP-induced depolarization (ΔΨ in - mV) ([2]; Glutamate/Malate, 10 μM): 216.4 ± 25.3 - mV; Lag Phase ([2]; Glutamate/Malate, 10 μM): 143.0 ± 21.7 s; Maximum potential (ΔΨ in - mV) ([2]; Glutamate/Malate, 10 μM): 227.5 ± 26.3 - mV; Repolarization Potential (ΔΨ in - mV) ([2]; Glutamate/Malate, 10 μM): 222.9 ± 25.4 - mV; ADP-induced depolarization (ΔΨ in - mV) ([2]; Succinate, 2.5 μM): 188.0 ± 19.7 - mV; Lag Phase ([2]; Succinate, 2.5 μM): 132.6 ± 22.7 s; Maximum potential (ΔΨ in - mV) ([2]; Succinate, 2.5 μM): 203.6 ± 16.6 - mV; Repolarization Potential (ΔΨ in - mV) ([2]; Succinate, 2.5 μM): 198.4 ± 18.4 - mV; ADP-induced depolarization (ΔΨ in - mV) ([2]; Succinate, 5 μM): 191.1 ± 20.0 - mV; Lag Phase ([2]; Succinate, 5 μM): 119.8 ± 32.2 s; Maximum potential (ΔΨ in - mV) ([2]; Succinate, 5 μM): 205.3 ± 19.4 - mV; Repolarization Potential (ΔΨ in - mV) ([2]; Succinate, 5 μM): 199.1 ± 19.2 - mV; ADP-induced depolarization (ΔΨ in - mV) ([2]; Succinate, 10 μM): 198.2 ± 19.3 - mV; Lag Phase ([2]; Succinate, 10 μM): 114.4 ± 24.3 s; Maximum potential (ΔΨ in - mV) ([2]; Succinate, 10 μM): 207.9 ± 19.3 - mV; Repolarization Potential (ΔΨ in - mV) ([2]; Succinate, 10 μM): 207.5 ± 19.4 - mV

Reference: patent US11078222B2, “Hydroxybenzoic acid derivatives, methods and uses thereof” (UNiVERSIDADE DO PORTO, priority 2016, dated 2021)
